Nine molecules from ChEMBL document CHEMBL5385841, “Recent advances in gout drugs” (Eur J Med Chem, 2023) can be followed below.

In data set [1] the target is Xanthine dehydrogenase/oxidase (Homo sapiens, UniProt P47989). The data set is described as follows: Inhibition of XO (unknown origin).
A short description of data set [2]: Oral bioavailability in rat relative to urinary excretion. It is filed as ADME, organism-based. As to conditions: urine.
Data set [3] has as its target T1, Broad substrate specificity ATP-binding cassette transporter ABCG2 (Homo sapiens, UniProt Q9UNQ0).
T1 sequence (Q9UNQ0 whole entry): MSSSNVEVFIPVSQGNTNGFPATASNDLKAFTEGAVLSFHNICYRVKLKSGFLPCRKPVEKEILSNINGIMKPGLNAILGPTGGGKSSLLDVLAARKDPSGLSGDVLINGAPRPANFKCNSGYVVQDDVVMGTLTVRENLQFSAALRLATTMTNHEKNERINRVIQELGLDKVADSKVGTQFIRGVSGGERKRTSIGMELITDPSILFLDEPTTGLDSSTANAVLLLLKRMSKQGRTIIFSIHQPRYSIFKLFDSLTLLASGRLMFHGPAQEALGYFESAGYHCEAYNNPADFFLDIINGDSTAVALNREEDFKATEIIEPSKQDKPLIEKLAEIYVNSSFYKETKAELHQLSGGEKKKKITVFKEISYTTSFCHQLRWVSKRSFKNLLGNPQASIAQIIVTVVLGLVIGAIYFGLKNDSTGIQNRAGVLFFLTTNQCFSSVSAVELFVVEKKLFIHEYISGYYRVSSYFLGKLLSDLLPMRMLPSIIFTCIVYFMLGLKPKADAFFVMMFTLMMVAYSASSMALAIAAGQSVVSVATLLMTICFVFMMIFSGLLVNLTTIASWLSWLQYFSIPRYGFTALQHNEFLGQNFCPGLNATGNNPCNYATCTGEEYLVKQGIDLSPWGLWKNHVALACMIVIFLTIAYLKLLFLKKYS
The data set is described as follows: Inhibition of ABCG2 (unknown origin).

Sequence of Xanthine dehydrogenase/oxidase (P47989 whole entry): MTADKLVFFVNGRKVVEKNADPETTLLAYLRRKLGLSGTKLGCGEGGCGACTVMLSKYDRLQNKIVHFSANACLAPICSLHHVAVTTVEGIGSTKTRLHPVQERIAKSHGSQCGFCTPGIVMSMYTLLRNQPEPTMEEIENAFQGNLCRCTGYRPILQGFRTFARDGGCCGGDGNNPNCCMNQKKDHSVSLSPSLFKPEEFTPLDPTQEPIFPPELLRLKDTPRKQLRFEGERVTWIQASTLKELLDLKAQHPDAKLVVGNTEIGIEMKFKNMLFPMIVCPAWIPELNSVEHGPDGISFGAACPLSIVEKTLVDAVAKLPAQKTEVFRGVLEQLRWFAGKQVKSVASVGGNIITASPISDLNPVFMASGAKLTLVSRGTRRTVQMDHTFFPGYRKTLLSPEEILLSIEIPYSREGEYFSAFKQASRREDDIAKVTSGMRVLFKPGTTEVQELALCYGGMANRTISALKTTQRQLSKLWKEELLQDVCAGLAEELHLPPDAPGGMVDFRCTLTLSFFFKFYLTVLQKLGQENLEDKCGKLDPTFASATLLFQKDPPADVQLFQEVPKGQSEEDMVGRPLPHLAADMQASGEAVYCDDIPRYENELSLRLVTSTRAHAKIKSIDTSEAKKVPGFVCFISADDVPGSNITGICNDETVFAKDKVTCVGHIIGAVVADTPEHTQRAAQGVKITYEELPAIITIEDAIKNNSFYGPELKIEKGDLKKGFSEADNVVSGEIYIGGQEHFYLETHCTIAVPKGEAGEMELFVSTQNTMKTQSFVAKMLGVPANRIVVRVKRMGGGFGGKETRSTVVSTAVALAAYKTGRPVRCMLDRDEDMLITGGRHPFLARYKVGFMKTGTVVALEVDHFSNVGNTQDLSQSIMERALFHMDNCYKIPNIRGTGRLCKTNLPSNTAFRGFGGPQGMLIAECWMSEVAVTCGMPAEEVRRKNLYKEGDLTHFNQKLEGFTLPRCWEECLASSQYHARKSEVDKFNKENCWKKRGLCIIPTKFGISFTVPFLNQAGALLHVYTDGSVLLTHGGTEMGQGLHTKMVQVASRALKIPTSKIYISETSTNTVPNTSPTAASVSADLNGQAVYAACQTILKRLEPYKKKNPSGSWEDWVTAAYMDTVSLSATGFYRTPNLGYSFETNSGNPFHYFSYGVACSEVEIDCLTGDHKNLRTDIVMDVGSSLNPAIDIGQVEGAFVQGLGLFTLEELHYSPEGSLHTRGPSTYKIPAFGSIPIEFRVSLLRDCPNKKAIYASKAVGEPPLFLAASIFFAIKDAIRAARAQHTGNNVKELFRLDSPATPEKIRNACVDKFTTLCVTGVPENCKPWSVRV

For `CC(=O)N1N=C(c2ccco2)CC1c1ccncc1` (centres undefined), in data set [1], the half-inhibitory concentration (IC50) (in general, the concentration that gives 50% inhibition) worked out at 5.3 µM. With `N#Cc1ccc(COc2cc(O)cc3oc4cc(O)c(O)cc4c(=O)c23)cc1`, in data set [1], inhibition was half-maximal at 21.7 µM (IC50). For the molecule `O=c1cc(-c2ccc(F)cc2)oc2c1ccc1ccccc12`, the IC50 in data set [1] is 0.62 µM. On to `O=C(O)[C@H]1O[C@@H](Oc2c(Cl)cc(C(=O)N3CS(=O)(=O)c4ccccc43)cc2Cl)[C@H](O)[C@@H](O)[C@@H]1O`, for which, in data set [2], the bioavailability (usually the share of a dose that reaches the circulation, judged against a reference dose that is usually intravenous) is 44.3%. Consider `N#CC1=C(N)Oc2c(c(=O)oc3ccccc23)C1c1cccs1` (centres undefined), for which, in data set [1], the half-maximal inhibitory concentration (IC50) is 0.59 µM.

On to `O=C(c1cc(Cl)c(OS(=O)(=O)O)c(Cl)c1)N1CS(=O)(=O)c2ccccc21`, for which, in data set [2], the bioavailability worked out at 20%.

In the case of `Cc1nc(-c2ccc(OCC(C)(C)C)c(C#N)c2)n(O)c1C(=O)O`, in data set [1], the IC50 was 6 µM. The molecule `O=C(c1cc(Cl)c(O)c(Cl)c1)N1CS(=O)(=O)c2ccccc21` [DOTINURAD] returned an IC50 in data set [3] of 0.0372 µM. In data set [1], `Cc1nc(-c2ccc(OCC(C)C)c(C#N)c2)sc1C(=O)O` [FEBUXOSTAT] had an IC50 of 25 µM.
